Test results: ChEMBL document CHEMBL3217416, “[4-(6,7-Disubstituted quinazolin-4-ylamino)phenyl] carbamic acid esters: a novel series of dual EGFR/VEGFR-2 tyrosine kinase inhibitors” (Medchemcomm, 2011)
pIC50: −log10 of the molar value.

Key:
[1] = target: Epidermal growth factor receptor (Homo sapiens, UniProt P00533); experiment: Inhibition of EGFR (unknown origin)
[2] = Antiproliferative activity against human EAhy926 cells by MTS assay; format: functional, cell-based; settings: EA.hy 926
PC-3 [3] = experiment: Antiproliferative activity against human PC3 cells at 10 uM by MTS assay; format: functional, cell-based
[4] = target: Vascular endothelial growth factor receptor 2 (Homo sapiens, UniProt P35968); experiment: Inhibition of VEGFR2 (unknown origin)
MCF7 [5] = experiment: Antiproliferative activity against human MCF7 cells by MTS assay; format: functional
HT-29 [6] = experiment: Antiproliferative activity against human HT-29 cells by MTS assay; format: functional
PC-3 [7] = experiment: Antiproliferative activity against human PC3 cells by MTS assay; format: functional
MCF7 [8] = experiment: Antiproliferative activity against human MCF7 cells […] by MTS assay; format: functional, cell-based
HT-29 [9] = experiment: Antiproliferative activity against human HT-29 cells at 10 uM by MTS assay; format: functional, cell-based

Vascular endothelial growth factor receptor 2, sequence (P35968 whole entry): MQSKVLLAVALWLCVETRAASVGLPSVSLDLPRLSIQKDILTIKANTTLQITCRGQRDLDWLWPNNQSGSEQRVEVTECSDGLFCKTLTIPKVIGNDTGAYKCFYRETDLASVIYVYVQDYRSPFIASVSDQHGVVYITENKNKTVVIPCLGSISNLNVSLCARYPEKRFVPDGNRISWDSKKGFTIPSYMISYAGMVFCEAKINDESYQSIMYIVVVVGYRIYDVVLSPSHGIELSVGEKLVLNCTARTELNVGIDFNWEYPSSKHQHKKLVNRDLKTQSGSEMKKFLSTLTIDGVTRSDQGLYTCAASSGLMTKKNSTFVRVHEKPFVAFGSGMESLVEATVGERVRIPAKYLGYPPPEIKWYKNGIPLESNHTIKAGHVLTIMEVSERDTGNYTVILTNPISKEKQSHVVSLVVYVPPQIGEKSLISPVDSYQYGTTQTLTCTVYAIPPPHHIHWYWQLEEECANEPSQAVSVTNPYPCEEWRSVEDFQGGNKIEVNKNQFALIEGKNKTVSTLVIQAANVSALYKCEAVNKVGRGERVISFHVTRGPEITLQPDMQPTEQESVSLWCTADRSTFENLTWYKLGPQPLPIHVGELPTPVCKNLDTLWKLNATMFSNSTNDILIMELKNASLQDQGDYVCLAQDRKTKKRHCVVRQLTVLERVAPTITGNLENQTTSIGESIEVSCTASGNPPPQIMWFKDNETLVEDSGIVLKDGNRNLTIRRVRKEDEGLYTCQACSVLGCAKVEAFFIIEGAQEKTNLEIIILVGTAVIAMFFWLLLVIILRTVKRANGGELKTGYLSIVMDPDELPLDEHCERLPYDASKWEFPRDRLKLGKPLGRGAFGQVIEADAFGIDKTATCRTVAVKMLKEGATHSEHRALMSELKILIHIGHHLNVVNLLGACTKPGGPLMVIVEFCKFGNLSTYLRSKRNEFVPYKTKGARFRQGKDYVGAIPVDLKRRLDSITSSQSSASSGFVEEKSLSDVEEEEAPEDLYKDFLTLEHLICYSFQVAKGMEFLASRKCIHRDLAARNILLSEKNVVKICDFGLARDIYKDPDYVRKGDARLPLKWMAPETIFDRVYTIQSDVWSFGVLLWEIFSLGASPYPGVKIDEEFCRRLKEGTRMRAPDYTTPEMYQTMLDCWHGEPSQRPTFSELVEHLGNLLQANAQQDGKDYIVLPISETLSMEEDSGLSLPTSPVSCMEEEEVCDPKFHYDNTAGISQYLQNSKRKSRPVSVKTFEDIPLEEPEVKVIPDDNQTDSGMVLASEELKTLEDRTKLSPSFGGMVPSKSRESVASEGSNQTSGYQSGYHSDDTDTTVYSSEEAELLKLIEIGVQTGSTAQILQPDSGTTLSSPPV
Epidermal growth factor receptor, sequence (P00533 whole entry): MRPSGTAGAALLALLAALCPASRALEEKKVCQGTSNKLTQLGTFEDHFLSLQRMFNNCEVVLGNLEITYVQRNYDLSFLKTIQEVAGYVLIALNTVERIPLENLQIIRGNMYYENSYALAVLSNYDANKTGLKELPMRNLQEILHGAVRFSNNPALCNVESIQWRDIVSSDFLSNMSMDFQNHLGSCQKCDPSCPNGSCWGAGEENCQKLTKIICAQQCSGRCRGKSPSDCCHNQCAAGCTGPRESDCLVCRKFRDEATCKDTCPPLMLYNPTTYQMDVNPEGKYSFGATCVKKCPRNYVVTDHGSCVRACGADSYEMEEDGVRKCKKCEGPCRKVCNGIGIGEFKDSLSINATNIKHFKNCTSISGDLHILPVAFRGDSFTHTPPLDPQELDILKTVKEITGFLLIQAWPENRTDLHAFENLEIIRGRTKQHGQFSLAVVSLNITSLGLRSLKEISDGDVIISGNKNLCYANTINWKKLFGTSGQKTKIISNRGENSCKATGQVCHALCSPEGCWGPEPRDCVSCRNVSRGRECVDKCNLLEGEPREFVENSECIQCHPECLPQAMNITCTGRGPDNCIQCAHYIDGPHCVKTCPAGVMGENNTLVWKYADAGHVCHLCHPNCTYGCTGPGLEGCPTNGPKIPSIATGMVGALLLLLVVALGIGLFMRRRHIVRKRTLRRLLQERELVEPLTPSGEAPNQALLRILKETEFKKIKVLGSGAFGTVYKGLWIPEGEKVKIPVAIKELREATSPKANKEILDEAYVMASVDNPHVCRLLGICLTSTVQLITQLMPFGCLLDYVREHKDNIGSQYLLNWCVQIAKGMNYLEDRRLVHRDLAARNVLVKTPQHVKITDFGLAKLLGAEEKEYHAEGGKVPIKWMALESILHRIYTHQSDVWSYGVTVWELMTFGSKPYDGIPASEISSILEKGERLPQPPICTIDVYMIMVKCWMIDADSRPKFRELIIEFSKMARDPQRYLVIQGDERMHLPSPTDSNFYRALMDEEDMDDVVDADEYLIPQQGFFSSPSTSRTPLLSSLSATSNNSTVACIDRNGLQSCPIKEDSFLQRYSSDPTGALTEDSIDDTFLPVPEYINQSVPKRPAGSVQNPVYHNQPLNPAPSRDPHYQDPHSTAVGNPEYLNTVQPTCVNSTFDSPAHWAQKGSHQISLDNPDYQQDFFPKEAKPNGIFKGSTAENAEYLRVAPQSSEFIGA

CCCOC(=O)Nc1ccc(Nc2ncnc3cc(OC)c(OC)cc23)cc1
pIC50 [1]: 5.15

CCCCOC(=O)Nc1ccc(Nc2ncnc3cc(OC)c(OC)cc23)cc1
pIC50 [1]: 6.10

CCCCOc1cc2c(Nc3ccc(NC(=O)OCC)c(Cl)c3)ncnc2cc1OCCN(CC)CC
pIC50 [2]: 5.55 | pIC50 (PC-3 [3]): < 5.00 | pIC50 [1]: 5.01 | pIC50 [4]: 5.32

CCOC(=O)Nc1cc(Cl)c(Nc2ncnc3cc(OC)c(OC)cc23)cc1Cl.Cl
inhibition (INH) (MCF7 [5]): 6% | inhibition (INH) (HT-29 [6]): 5% | inhibition (INH) (PC-3 [7]): 0% | pIC50 [1]: < 5.00

CCCCC(=O)Nc1ccc(Nc2ncnc3cc(OC)c(OC)cc23)cc1C
pIC50 [1]: < 5.00

CCOC(=O)Nc1ccc(Nc2ncnc3cc(OCCN(CC)CC)c(OC)cc23)cc1C
pIC50 (MCF7 [8]): < 5.00 | pIC50 (HT-29 [9]): < 5.00 | pIC50 [2]: < 5.00 | pIC50 (PC-3 [3]): < 5.00 | pIC50 [1]: < 5.00 | pIC50 [4]: 5.43

CCCCOc1cc2c(Nc3ccc(NC(=O)OCC)c(C)c3)ncnc2cc1OCCN(CC)CC
pIC50 (MCF7 [8]): < 5.00 | pIC50 [2]: 5.09 | pIC50 (PC-3 [3]): < 5.00 | pIC50 [1]: < 5.00 | pIC50 [4]: 5.24

CCOC(=O)Nc1ccc(Nc2ncnc3cc(OCCN(CC)CC)c(OC)cc23)cc1Cl
pIC50 (MCF7 [8]): < 5.00 | pIC50 [2]: 5.21 | pIC50 (PC-3 [3]): < 5.00 | pIC50 [1]: < 5.00 | pIC50 [4]: 5.48

CCOC(=O)Nc1ccc(Nc2ncnc3cc(OCCN4CCOCC4)c(OC)cc23)cc1C
pIC50 (MCF7 [8]): < 5.00 | pIC50 (HT-29 [9]): < 5.00 | pIC50 [2]: < 5.00 | pIC50 (PC-3 [3]): < 5.00 | pIC50 [1]: 5.10 | pIC50 [4]: 6.40

CCOC(=O)Nc1ccc(Nc2ncnc3cc(OCCN4CCCCC4)c(OC)cc23)cc1Cl
pIC50 (MCF7 [8]): 5.52 | pIC50 (HT-29 [9]): 5.28 | pIC50 [2]: 5.03 | pIC50 (PC-3 [3]): < 5.00 | pIC50 [1]: < 5.00 | pIC50 [4]: 6.10

CCCCOC(=O)Nc1ccc(Nc2ncnc3cc(OC)c(OC)cc23)cc1C
pIC50 [1]: 5.12 | pIC50 [4]: 5.28

CCCC(=O)Nc1ccc(Nc2ncnc3cc(OC)c(OC)cc23)cc1C
pIC50 [1]: < 5.00 | pIC50 [4]: 5.37

CCC(=O)Nc1ccc(Nc2ncnc3cc(OC)c(OC)cc23)cc1C.Cl
inhibition (INH) (MCF7 [5]): 28% | inhibition (INH) (HT-29 [6]): 0% | inhibition (INH) (PC-3 [7]): 0% | pIC50 [1]: < 5.00

CCCOc1cc2ncnc(Nc3ccc(NC(=O)OCC)c(Cl)c3)c2cc1OC
pIC50 [1]: 5.26

COC(=O)Nc1cc(Nc2ncnc3cc(OC)c(OC)cc23)ccc1Cl.Cl
inhibition (INH) (MCF7 [5]): 0% | inhibition (INH) (HT-29 [6]): 0% | inhibition (INH) (PC-3 [7]): 3% | pIC50 [1]: < 5.00

CCOC(=O)Nc1ccc(Nc2ncnc3cc(OCCN4CCOCC4)c(OC)cc23)cc1Cl
pIC50 (MCF7 [8]): < 5.00 | pIC50 (HT-29 [9]): < 5.00 | pIC50 [2]: < 5.00 | pIC50 (PC-3 [3]): < 5.00 | pIC50 [1]: 5.07 | pIC50 [4]: 6.52

CCCCNC(=O)Nc1cc(Cl)c(Nc2ncnc3cc(OC)c(OC)cc23)cc1Cl.Cl
inhibition (INH) (MCF7 [5]): 0% | inhibition (INH) (HT-29 [6]): 3% | inhibition (INH) (PC-3 [7]): 0% | pIC50 [1]: < 5.00

COc1cc2/c(=N/c3ccc(Br)cc3F)nc[nH]c2cc1OCC1CCN(C)CC1 [VANDETANIB]
inhibition (INH) (MCF7 [5]): 26% | inhibition (INH) (PC-3 [7]): 33%

CCOC(=O)Nc1ccc(Nc2ncnc3cc(OC)c(OC)cc23)cc1Cl
pIC50 [1]: 6.00

CCCOC(=O)Nc1ccc(Nc2ncnc3cc(OC)c(OC)cc23)cc1Cl
pIC50 [1]: 6.00

CCCOc1cc2ncnc(Nc3ccc(NC(=O)OCC)c(C)c3)c2cc1OC
pIC50 [1]: 5.41

CCOC(=O)Nc1ccc(Nc2ncnc3cc(OC)c(OC)cc23)cc1C
pIC50 [1]: 6.05

COc1cc2ncnc(Nc3ccc(NC(C)=O)c(C)c3)c2cc1OC.Cl
inhibition (INH) (MCF7 [5]): 0% | inhibition (INH) (HT-29 [6]): 0% | inhibition (INH) (PC-3 [7]): 0% | pIC50 [1]: < 5.00

CCCCOC(=O)Nc1ccc(Nc2ncnc3cc(OC)c(OC)cc23)cc1Cl
pIC50 [1]: 5.19

CCOC(=O)Nc1ccc(Nc2ncnc3cc(OCCN4CCCCC4)c(OC)cc23)cc1C
pIC50 (MCF7 [8]): < 5.00 | pIC50 (HT-29 [9]): 5.28 | pIC50 [2]: 5.03 | pIC50 (PC-3 [3]): < 5.00 | pIC50 [1]: < 5.00 | pIC50 [4]: 6.05

CCOC(=O)Nc1ccc(Nc2ncnc3cc(OC)c(OCCN(CC)CC)cc23)cc1C
pIC50 (MCF7 [8]): < 5.00 | pIC50 (HT-29 [9]): < 5.00 | pIC50 [2]: < 5.00 | pIC50 (PC-3 [3]): < 5.00 | pIC50 [1]: < 5.00 | pIC50 [4]: 5.14

CCNC(=O)Nc1cc(Cl)c(Nc2ncnc3cc(OC)c(OC)cc23)cc1Cl.Cl
inhibition (INH) (MCF7 [5]): 21% | inhibition (INH) (HT-29 [6]): 16% | inhibition (INH) (PC-3 [7]): 11% | pIC50 [1]: < 5.00

CCOC(=O)Nc1cc(Nc2ncnc3cc(OC)c(OC)cc23)ccc1C
pIC50 [1]: 5.30

COC(=O)Nc1ccc(Nc2ncnc3cc(OC)c(OC)cc23)cc1Cl
pIC50 [1]: 5.21 | pIC50 [4]: 5.30

CCOC(=O)Nc1cc(Nc2ncnc3cc(OC)c(OC)cc23)ccc1Cl
pIC50 [1]: 6.05

COC(=O)Nc1ccc(Nc2ncnc3cc(OC)c(OC)cc23)cc1C
pIC50 [1]: 5.40
